Key:
[1] = target: Atypical kinase COQ8A, mitochondrial (Homo sapiens) (UniProt Q8NI60); conditions: Compound concentration 1000.0 nM
[2] = target: 5'-AMP-activated protein kinase catalytic subunit alpha-2 (Homo sapiens) (UniProt P54646); conditions: Compound concentration 1000.0 nM
[3] = target: BMP-2-inducible protein kinase (Homo sapiens) (UniProt Q9NSY1); conditions: Compound concentration 1000.0 nM
[4] = target: Dual specificity protein kinase CLK1 (Homo sapiens) (UniProt P49759); conditions: Compound concentration 1000.0 nM
Dual specificity protein kinase CLK1 (Homo sapiens), sequence (P49759 whole entry, looked up, canonical isoform): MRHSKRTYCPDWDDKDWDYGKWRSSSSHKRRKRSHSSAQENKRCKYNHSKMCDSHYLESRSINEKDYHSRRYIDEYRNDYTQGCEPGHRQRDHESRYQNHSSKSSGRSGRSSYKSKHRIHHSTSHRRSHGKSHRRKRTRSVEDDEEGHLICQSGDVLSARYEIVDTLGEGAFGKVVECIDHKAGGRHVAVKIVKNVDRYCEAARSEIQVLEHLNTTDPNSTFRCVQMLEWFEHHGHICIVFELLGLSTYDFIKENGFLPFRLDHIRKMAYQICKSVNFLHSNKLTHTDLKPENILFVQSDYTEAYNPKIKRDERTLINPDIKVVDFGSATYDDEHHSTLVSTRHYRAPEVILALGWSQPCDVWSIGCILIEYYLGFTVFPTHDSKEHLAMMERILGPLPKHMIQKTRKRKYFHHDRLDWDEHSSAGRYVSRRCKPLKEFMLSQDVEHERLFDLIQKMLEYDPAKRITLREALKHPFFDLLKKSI

[5] = target: Casein kinase I isoform gamma-2 (Homo sapiens) (UniProt P78368); conditions: Compound concentration 1000.0 nM
[6] = target: Mitogen-activated protein kinase kinase kinase 12 (Homo sapiens) (UniProt Q12852); conditions: Compound concentration 1000.0 nM
[7] = target: Dual specificity tyrosine-phosphorylation-regulated kinase 2 (Homo sapiens) (UniProt Q92630); conditions: Compound concentration 1000.0 nM
[8] = system: Receptor-type tyrosine-protein kinase FLT3 (Homo sapiens), P36888 [D835H]; conditions: Compound concentration 1000.0 nM
[9] = target: Leukocyte tyrosine kinase receptor (Homo sapiens) (UniProt P29376); conditions: Compound concentration 1000.0 nM
Leukocyte tyrosine kinase receptor (Homo sapiens), sequence (P29376 whole entry): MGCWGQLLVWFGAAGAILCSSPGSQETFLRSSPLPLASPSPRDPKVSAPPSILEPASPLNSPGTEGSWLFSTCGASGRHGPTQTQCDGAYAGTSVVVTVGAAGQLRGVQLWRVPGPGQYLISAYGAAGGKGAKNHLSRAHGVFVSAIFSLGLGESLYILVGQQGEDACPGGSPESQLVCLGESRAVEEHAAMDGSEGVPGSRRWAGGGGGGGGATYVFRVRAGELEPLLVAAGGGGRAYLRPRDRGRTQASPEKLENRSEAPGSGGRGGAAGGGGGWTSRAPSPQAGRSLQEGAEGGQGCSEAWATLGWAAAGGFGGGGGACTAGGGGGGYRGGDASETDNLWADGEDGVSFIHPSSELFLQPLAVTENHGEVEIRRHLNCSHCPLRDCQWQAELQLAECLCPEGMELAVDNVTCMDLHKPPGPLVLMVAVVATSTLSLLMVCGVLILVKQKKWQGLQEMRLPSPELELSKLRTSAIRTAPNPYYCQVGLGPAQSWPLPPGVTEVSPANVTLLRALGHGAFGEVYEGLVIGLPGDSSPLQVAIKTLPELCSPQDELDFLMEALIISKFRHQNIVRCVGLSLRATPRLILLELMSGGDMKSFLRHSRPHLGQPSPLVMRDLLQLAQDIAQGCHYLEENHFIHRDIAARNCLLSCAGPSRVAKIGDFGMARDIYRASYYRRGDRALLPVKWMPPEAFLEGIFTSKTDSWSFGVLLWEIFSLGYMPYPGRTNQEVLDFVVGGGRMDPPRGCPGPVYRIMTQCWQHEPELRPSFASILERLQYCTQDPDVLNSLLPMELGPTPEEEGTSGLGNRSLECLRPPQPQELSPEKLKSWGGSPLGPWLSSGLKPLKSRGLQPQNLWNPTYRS

[10] = target: Mitogen-activated protein kinase kinase kinase 1 (Homo sapiens) (UniProt Q13233); conditions: Compound concentration 1000.0 nM
[11] = target: Dual specificity mitogen-activated protein kinase kinase 6 (Homo sapiens) (UniProt P52564); conditions: Compound concentration 1000.0 nM
[12] = system: Hepatocyte growth factor receptor (Homo sapiens), P08581 [Y1235D]; conditions: Compound concentration 1000.0 nM
[13] = target: Serine/threonine-protein kinase 26 (Homo sapiens) (UniProt Q9P289); conditions: Compound concentration 1000.0 nM
[14] = target: Serine/threonine-protein kinase NLK (Homo sapiens) (UniProt Q9UBE8); conditions: Compound concentration 1000.0 nM
[15] = system: Phosphatidylinositol 4,5-bisphosphate 3-kinase catalytic subunit alpha isoform (Homo sapiens), P42336 [E545K]; conditions: Compound concentration 1000.0 nM
[16] = target: Phosphatidylinositol 4,5-bisphosphate 3-kinase catalytic subunit gamma isoform (Homo sapiens) (UniProt P48736); conditions: Compound concentration 1000.0 nM
Phosphatidylinositol 4,5-bisphosphate 3-kinase catalytic subunit gamma isoform (Homo sapiens), sequence (P48736 whole entry, looked up, canonical isoform): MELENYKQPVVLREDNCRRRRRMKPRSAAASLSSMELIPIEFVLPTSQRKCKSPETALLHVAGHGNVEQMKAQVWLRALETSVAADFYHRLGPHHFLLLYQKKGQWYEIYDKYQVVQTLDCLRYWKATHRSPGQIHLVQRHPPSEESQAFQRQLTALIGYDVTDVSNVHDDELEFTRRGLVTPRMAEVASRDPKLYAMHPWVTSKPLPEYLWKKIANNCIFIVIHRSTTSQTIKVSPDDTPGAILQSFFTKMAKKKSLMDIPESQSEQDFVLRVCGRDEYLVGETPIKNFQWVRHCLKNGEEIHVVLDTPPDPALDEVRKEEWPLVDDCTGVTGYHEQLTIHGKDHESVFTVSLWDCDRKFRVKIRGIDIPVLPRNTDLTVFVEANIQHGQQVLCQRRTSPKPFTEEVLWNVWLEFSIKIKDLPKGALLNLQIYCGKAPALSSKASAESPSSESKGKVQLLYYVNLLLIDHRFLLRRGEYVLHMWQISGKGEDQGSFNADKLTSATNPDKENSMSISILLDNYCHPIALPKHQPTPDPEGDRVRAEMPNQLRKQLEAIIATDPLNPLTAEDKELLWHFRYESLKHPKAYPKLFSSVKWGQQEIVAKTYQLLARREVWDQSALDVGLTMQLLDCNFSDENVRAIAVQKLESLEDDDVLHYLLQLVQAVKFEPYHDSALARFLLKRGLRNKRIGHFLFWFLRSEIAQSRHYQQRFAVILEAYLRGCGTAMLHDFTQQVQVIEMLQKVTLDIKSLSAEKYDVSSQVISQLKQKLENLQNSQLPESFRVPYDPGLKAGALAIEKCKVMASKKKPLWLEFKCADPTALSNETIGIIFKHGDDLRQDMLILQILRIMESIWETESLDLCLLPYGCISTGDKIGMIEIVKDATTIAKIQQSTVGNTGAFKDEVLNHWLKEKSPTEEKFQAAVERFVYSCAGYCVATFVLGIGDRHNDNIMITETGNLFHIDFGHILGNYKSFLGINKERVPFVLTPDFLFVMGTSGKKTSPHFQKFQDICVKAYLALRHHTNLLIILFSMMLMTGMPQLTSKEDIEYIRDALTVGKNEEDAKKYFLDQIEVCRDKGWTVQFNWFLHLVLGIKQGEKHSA

[17] = target: Serine/threonine-protein kinase pim-1 (Homo sapiens) (UniProt P11309); conditions: Compound concentration 1000.0 nM
[18] = system: Proto-oncogene tyrosine-protein kinase receptor Ret (Homo sapiens), P07949 [V804L]; conditions: Compound concentration 1000.0 nM
Proto-oncogene tyrosine-protein kinase receptor Ret (Homo sapiens), P07949 [V804L], sequence (P07949 whole entry V804L): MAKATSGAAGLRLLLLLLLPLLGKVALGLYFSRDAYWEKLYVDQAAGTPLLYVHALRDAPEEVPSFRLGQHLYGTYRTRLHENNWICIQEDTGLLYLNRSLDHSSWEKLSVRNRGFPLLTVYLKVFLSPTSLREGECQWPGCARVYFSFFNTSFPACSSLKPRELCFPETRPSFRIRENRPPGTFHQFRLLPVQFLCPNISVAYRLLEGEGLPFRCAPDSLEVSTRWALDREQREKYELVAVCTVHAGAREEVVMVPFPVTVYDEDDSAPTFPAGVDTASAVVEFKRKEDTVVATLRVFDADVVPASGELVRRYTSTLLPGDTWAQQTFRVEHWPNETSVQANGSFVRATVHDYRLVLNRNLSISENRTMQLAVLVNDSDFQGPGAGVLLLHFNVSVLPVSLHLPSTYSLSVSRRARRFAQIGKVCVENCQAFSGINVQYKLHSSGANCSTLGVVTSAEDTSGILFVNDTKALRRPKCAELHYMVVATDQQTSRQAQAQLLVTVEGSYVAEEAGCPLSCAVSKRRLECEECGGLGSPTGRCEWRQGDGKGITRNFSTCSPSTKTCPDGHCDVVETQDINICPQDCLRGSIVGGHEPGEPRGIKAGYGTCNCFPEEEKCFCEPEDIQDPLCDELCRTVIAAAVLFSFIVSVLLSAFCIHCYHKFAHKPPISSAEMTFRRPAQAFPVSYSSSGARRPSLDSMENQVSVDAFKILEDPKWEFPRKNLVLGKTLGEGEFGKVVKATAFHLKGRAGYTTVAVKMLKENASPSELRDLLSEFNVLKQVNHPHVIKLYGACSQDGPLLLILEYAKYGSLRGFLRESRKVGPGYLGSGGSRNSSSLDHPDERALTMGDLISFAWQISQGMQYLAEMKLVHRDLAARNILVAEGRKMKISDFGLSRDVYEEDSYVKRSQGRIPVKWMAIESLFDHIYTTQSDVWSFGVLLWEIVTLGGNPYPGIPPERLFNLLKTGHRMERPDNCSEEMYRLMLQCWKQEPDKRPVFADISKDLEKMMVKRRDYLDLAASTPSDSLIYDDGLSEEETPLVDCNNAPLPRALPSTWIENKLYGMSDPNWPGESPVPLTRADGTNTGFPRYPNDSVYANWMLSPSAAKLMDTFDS

[19] = target: Serine/threonine-protein kinase SIK1 (Homo sapiens) (UniProt P57059); conditions: Compound concentration 1000.0 nM
Serine/threonine-protein kinase SIK1 (Homo sapiens), sequence (P57059 whole entry): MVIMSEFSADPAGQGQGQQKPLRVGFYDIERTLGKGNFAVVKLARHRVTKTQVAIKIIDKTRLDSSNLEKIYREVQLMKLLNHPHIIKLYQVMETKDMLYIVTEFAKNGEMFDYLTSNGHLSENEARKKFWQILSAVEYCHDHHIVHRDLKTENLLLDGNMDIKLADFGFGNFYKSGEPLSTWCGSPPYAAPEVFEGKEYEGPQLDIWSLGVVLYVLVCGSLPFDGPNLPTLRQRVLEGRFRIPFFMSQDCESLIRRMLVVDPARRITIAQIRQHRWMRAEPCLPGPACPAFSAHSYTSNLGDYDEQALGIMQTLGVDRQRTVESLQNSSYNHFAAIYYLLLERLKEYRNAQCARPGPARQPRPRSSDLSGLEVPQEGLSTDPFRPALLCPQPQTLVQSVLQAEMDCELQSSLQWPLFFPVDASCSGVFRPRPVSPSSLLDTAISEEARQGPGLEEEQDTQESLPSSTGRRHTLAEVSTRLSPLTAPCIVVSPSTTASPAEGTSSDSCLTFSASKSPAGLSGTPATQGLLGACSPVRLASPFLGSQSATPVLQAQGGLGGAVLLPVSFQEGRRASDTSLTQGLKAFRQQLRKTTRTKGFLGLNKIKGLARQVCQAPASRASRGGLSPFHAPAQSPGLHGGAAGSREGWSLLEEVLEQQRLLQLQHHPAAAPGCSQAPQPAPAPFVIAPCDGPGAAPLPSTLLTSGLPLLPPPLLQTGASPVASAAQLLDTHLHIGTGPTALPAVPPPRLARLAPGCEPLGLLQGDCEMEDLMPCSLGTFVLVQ

[20] = target: NUAK family SNF1-like kinase 2 (Homo sapiens) (UniProt Q9H093); conditions: Compound concentration 1000.0 nM
[21] = target: SRSF protein kinase 1 (Homo sapiens) (UniProt Q96SB4); conditions: Compound concentration 1000.0 nM
SRSF protein kinase 1 (Homo sapiens), sequence (Q96SB4 whole entry): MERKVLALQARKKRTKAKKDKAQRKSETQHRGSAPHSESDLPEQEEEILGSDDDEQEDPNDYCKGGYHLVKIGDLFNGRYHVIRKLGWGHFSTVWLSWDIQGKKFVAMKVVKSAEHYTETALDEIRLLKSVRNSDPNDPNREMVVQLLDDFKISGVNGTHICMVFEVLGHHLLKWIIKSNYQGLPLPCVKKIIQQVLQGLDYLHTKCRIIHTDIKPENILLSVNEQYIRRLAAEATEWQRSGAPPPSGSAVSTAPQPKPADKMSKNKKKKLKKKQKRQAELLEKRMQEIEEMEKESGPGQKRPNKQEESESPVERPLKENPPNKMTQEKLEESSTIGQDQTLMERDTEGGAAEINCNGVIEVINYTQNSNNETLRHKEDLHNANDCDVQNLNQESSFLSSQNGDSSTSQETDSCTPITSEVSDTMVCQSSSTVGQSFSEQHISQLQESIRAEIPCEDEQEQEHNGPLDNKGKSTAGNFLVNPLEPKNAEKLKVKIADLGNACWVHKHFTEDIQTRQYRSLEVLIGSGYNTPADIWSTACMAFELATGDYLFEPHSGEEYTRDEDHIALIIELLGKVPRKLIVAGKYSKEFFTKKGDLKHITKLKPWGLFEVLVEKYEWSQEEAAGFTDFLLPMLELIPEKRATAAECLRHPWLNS

[22] = target: SRSF protein kinase 3 (Homo sapiens) (UniProt Q9UPE1); conditions: Compound concentration 1000.0 nM
[23] = target: Angiopoietin-1 receptor (Homo sapiens) (UniProt Q02763); conditions: Compound concentration 1000.0 nM
[24] = target: Activated CDC42 kinase 1 (Homo sapiens) (UniProt Q07912); conditions: Compound concentration 1000.0 nM
[25] = target: T1, Testis-specific serine/threonine-protein kinase 1 (Homo sapiens) (UniProt Q9BXA7); conditions: Compound concentration 1000.0 nM
T1 sequence (whole entry): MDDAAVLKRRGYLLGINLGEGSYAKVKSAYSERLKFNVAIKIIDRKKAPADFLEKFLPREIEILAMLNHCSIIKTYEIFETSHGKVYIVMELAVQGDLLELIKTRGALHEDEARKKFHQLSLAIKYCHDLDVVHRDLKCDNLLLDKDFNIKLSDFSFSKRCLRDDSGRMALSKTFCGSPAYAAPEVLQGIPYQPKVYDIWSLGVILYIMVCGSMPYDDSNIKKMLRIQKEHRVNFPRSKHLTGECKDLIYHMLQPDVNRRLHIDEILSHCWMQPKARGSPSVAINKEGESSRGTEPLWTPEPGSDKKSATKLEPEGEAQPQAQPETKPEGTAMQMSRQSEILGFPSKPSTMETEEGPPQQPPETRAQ

[26] = target: T2, 5-hydroxytryptamine receptor 2C (Homo sapiens) (UniProt P28335); conditions: Compound concentration 10.0 uM
T2 sequence (whole entry): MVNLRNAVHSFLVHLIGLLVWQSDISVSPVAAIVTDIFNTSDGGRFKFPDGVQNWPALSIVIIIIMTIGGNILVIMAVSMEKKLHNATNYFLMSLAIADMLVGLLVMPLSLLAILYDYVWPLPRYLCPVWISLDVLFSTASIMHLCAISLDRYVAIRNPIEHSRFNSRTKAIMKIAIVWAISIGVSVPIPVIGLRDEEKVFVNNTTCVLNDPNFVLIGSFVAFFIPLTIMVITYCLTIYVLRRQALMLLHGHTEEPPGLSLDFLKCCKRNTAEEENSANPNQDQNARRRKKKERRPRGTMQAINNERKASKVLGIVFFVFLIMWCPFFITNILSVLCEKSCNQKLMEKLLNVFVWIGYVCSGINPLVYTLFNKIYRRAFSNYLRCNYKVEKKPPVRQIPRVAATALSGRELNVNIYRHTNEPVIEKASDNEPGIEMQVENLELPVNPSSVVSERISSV

[27] = target: D(4) dopamine receptor (Homo sapiens) (UniProt P21917); conditions: Compound concentration 10.0 uM
[28] = target: T3, Alpha-2B adrenergic receptor (Homo sapiens) (UniProt P18089); conditions: Compound concentration 10.0 uM
T3 sequence (whole entry): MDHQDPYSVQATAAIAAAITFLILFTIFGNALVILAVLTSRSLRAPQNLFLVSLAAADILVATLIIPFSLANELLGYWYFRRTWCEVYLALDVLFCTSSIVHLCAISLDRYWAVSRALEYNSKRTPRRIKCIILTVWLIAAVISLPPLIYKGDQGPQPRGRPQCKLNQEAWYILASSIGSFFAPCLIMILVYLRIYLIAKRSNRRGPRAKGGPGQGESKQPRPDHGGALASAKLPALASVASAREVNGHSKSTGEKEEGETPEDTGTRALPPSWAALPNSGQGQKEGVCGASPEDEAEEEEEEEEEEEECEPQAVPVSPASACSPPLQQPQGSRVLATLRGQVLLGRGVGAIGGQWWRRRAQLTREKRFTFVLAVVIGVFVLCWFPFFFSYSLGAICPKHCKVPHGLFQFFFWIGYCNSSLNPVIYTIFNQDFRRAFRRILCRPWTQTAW

CNCc1ccccc1-c1csc([C@H](C)Nc2nc(C)nc3cc(OC)c(OC)cc23)c1 [BAY-294]
residual activity [1]: 91% | residual activity [2]: 100% | residual activity [3]: 79% | residual activity [4]: 95% | residual activity [5]: 100% | residual activity [6]: 97% | residual activity [7]: 96% | residual activity [8]: 74% | residual activity [9]: 98% | residual activity [10]: 97% | residual activity [11]: 100% | residual activity [12]: 98% | residual activity [13]: 97% | residual activity [14]: 100% | residual activity [15]: 75% | residual activity [16]: 73% | residual activity [17]: 100% | residual activity [18]: 99% | residual activity [19]: 100% | residual activity [20]: 100% | residual activity [21]: 100% | residual activity [22]: 89% | residual activity [23]: 100% | residual activity [24]: 100% | residual activity [25]: 93% | inhibition [26]: 71.8% | inhibition [27]: 31% | inhibition [28]: 82.9%

CNCc1ccccc1-c1csc([C@@H](C)Nc2nc(C)nc3cc(OC)c(OC)cc23)c1 [BAY-293]
residual activity [1]: 92% | residual activity [2]: 97% | residual activity [3]: 87% | residual activity [4]: 98% | residual activity [5]: 98% | residual activity [6]: 100% | residual activity [7]: 92% | residual activity [8]: 55% | residual activity [9]: 97% | residual activity [10]: 72% | residual activity [11]: 86% | residual activity [12]: 100% | residual activity [13]: 99% | residual activity [14]: 84% | residual activity [15]: 78% | residual activity [16]: 67% | residual activity [17]: 97% | residual activity [18]: 73% | residual activity [19]: 91% | residual activity [20]: 97% | residual activity [21]: 90% | residual activity [22]: 84% | residual activity [23]: 87% | residual activity [24]: 100% | residual activity [25]: 59% | inhibition [26]: 73.7% | inhibition [27]: 56.7% | inhibition [28]: 64.2%

Source: ChEMBL document CHEMBL4507273 (2021)
